Read-outs that look alike come from different tables or passages of the source. Bridge positions count the residues as written; N and C are the ends. Square brackets hold non-standard residues; d marks the D form. Peptide text beside a SMILES is read from it. αMeL = CC(C)C[C@](C)(N)C(=O)O; Nle = CCCC[C@H](N)C(=O)O
Assays:
human CRFR2b = molecular target: T1, human CRFR2b (Homo sapiens, UniProt Q13324); assay: Competitive displacement binding assay, stably transfected CHO cells expressing human CRFR2b
T1 construct: expressed in transfected cells
T1 sequence (Q13324 1-438 isoform Q13324-2): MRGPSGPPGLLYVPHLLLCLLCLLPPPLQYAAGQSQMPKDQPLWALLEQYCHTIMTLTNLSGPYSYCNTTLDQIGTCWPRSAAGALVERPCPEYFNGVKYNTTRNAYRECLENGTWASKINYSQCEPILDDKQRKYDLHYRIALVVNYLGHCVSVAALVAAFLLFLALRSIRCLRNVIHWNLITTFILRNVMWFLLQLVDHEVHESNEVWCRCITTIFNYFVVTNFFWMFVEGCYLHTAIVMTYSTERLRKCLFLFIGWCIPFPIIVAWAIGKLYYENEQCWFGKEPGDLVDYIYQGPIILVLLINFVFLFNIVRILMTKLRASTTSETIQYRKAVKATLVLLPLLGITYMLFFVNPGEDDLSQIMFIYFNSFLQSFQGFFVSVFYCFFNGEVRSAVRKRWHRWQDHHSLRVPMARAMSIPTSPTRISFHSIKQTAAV
Description: (§1) CRF receptors have now been cloned and are disclosed in the aforementioned Chen et al. article, in Perrin, M., et al., P.N.A.S, 92, 2969–2973 (March 1995), and in Lovenberg, T., et al., P.N.A.S., 92, 836–840 (January 1995). Binding affinity is a term used to refer to the strength of interaction between ligand and receptor. […] Ki (inhibitory binding affinity constant) is determined using a “standard” or “tracer” radioactive ligand and thus measures the displacement of the tracer from the receptor or binding protein; it is most properly expressed with reference to such tracer. However, so long as these assays are carefully performed under specific conditions with relatively low concentrations of receptor or the like, the calculated Ki will be substantially the same as its dissociation constant KD. […] It is particularly efficient to test for Ki because only a single tracer need be labelled, e.g. radioiodinated. […] Those reported hereinafter are derived using radioactively labeled [Tyr Glu^1, Nle^17]-Svg as a radioligand.
(§2) Binding assays with cells expressing human CRFR1 are carried out as described in the Chen et al. P.N.A.S., supra. The affinities of test peptides for CRFR1 and CRFR2b stably expressed in CHO cells were determined by competitive displacement of ^125I-(Nle^21, Tyr^32) ovine CRF (for CRFR1) or of [^125I-Tyr^o-]Ucn (for CRFR2b) as described.

CRFR2 = molecular target: T2, CRFR2 (Homo sapiens, UniProt Q13324); assay: cAMP accumulation in CHO cells stably transfected with CRFR2 and treated with CRF; type: cell-based; conditions: CHO cells stably transfected with CRFR2, treated with CRF
T2 construct: expressed in transfected cells
T2 sequence (Q13324 1-438 isoform Q13324-2): T1 sequence (Q13324 1-438 isoform Q13324-2)
Text: In addition to inhibiting CRF receptor binding, a candidate's CRF receptor antagonist activity may be established by the ability of the compound to antagonize an activity associated with CRF. For example, CRF is known to stimulate various biochemical processes, including adenylate cyclase activity. Therefore, compounds may be evaluated as CRF antagonists by their ability to antagonize CRF-stimulated adenylate cyclase activity by, for example, measuring cAMP levels. The inhibition of CRF-stimulated adenylate cyclase activity, determined by the assay described by G. Battaglia et al., Synapse 1:572 (1987), provides an assay for determining a compound's ability to antagonize CRF activity. Accordingly, CRF receptor antagonist activity may be determined by assay techniques which generally include an initial binding assay followed by such a cAMP screening protocol. […]

CRF receptors = assay: Intrinsic CRF activity of the antagonist; conditions: when administered at the highest dosage
CRFR1 [1] = molecular target: T3, CRFR1 (Homo sapiens, UniProt P34998); assay: cAMP accumulation in CHO cells stably transfected with CRFR1 and treated with CRF; type: cell-based
T3 construct: expressed in transfected cells
T3 sequence (P34998 24-415): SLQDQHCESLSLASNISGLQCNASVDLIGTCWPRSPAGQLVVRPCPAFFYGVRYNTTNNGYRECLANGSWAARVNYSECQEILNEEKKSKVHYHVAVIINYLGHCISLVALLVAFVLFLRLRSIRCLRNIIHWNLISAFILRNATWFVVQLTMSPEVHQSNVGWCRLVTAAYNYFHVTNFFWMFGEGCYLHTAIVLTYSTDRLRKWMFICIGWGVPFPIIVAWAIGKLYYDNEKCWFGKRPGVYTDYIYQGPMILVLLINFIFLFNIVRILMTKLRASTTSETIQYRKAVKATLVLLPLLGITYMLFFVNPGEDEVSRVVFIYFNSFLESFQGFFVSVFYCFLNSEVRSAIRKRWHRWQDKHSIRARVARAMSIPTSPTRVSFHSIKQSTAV
Text: In addition to inhibiting CRF receptor binding, a candidate's CRF receptor antagonist activity may be established by the ability of the compound to antagonize an activity associated with CRF. For example, CRF is known to stimulate various biochemical processes, including adenylate cyclase activity. Therefore, compounds may be evaluated as CRF antagonists by their ability to antagonize CRF-stimulated adenylate cyclase activity by, for example, measuring cAMP levels. The inhibition of CRF-stimulated adenylate cyclase activity, determined by the assay described by G. Battaglia et al., Synapse 1:572 (1987), provides an assay for determining a compound's ability to antagonize CRF activity. Accordingly, CRF receptor antagonist activity may be determined by assay techniques which generally include an initial binding assay followed by such a cAMP screening protocol.
as §2

CRFR1 [2] = molecular target: T3, CRFR1; assay: Competitive displacement binding assay, cloned hCRFR1 expressed in CHO cells
Text: A candidate CRFR2 ligand is also easily evaluated in a binding assay using known CRF receptors, such as that described in Perrin, M., et al., Endocrinology, 118, 1171–1179 (1986). CRF receptors and the details of binding assays are discussed later in this specification. […] One such representative binding assay utilizing CRF-R1 receptor is described in Chen, et al., P.N.A.S., 90, 8967–8971 (October 1993).
as §1, §2

| SMILES | Ki (human CRFR2b) | antagonism of CRF activity with respect to CRFR2 (cAMP accumulation) (CRFR2) | intrinsic CRF activity (CRF receptors) | antagonism of CRF activity with respect to CRFR1 (cAMP accumulation) (CRFR1 [1]) | IC50 (CRFR1 [2]) | Ki (CRFR1 [2]) | IC50 (CRFR1 [2]; read-out: affinity of cloned hCRFR1 for the peptide (competitive displacement of bound radioligand)) | IC50 (human CRFR2b) |
| --- | --- | --- | --- | --- | --- | --- | --- | --- |
| CCCC[C@H](NC(=O)[C@H](CCCCN)NC(=O)[C@H](CCCNC(=N)N)NC(=O)[C@H](CC(C)C)NC(=O)[C@](C)(CC(C)C)NC(=O)[C@H](Cc1c[nH]cn1)NC(=O)[C@@H](Cc1ccccc1)NC(C)=O)C(=O)N[C@H](C(=O)N[C@@H](CCC(=O)O)C(=O)N[C@H](C(=O)N[C@@H](CCC(=O)O)C(=O)N[C@@H](CCCCN)C(=O)N[C@@H](CCC(N)=O)C(=O)N[C@@H](CCC(=O)O)C(=O)N[C@@H](CCCCN)C(=O)N[C@@H](CCC(=O)O)C(=O)N[C@@H](CCCCN)C(=O)N[C@@H](CCC(N)=O)C(=O)N[C@@H](CCC(N)=O)C(=O)N[C@@H](C)C(=O)N[C@H]1CCC(=O)NCCCC[C@@H](C(=O)N[C@@H](CC(C)C)C(=O)N[C@@H](CC(C)C)C(=O)N[C@@H](CC(C)C)C(=O)N[C@@H](CC(=O)O)C(=O)N[C@@](C)(CC(C)C)C(=O)N[C@H](C(N)=O)[C@@H](C)CC)NC(=O)[C@H](CC(N)=O)NC(=O)[C@H](CC(N)=O)NC1=O)[C@@H](C)CC)[C@@H](C)CC [Example 1 cyclic peptide, (cyclo 31–34)[Ac-D-Phe^11, His^12, CML ^13,39, Nle^17, Glu^31, Lys^34]-sauvagine(11–40)] | 1.1 nM | effectively antagonize CRF activity | only minor intrinsic CRF activity | little or no effect | > 500 nM | ~1000 nM | – | – |
| CCCC[C@H](NC(=O)[C@H](CCC(=O)O)NC(=O)[C@H](CC(C)C)NC(=O)[C@@H](NC(=O)[C@H](CCC(=O)O)NC(=O)[C@H](CCCNC(=N)N)NC(=O)[C@H](CC(C)C)NC(=O)[C@](C)(CC(C)C)NC(=O)[C@H](Cc1c[nH]cn1)NC(=O)[C@H](N)Cc1ccccc1)C(C)C)C(=O)N[C@@H](C)C(=O)N[C@@H](CCCNC(=N)N)C(=O)N[C@@H](C)C(=O)N[C@@H](CCC(=O)O)C(=O)N[C@@H](CCC(N)=O)C(=O)N[C@@H](CC(C)C)C(=O)N[C@@H](C)C(=O)N[C@@H](CCC(N)=O)C(=O)N[C@@H](CCC(N)=O)C(=O)N[C@@H](C)C(=O)N[C@H]1CCC(=O)NCCCC[C@@H](C(=O)N[C@@H](CCCCN)C(=O)N[C@@H](CC(C)C)C(=O)N[C@@H](CCCC)C(=O)N[C@@H](CCC(=O)O)C(=O)N[C@@](C)(CC(C)C)C(=O)N[C@H](C(N)=O)[C@@H](C)CC)NC(=O)[C@H](CC(N)=O)NC(=O)[C@H](CO)NC1=O [Example 9B, (cyclo 32–35) [D-Phe^12, CML^14,40, Nle^21,38, Glu^32, Lys^35]-r/hCRF(12–41)] (H-[dF]H[αMeL]LREVLE[Nle]ARAEQLAQQAESNKKL[Nle]E[αMeL]I-NH2; lactam 21-24) | – | – | – | – | – | – | > 100 nM | – |
| CCCC[C@H](NC(=O)[C@H](CCCCN)NC(=O)[C@H](CCCNC(=N)N)NC(=O)[C@H](CC(C)C)NC(=O)[C@](C)(CC(C)C)NC(=O)[C@H](Cc1c[nH]cn1)NC(=O)[C@@H](Cc1ccccc1)NC(=O)[C@H](CO)NC(=O)[C@H](CC(C)C)NC(=O)[C@H](CC(=O)O)NC(C)=O)C(=O)N[C@H](C(=O)N[C@@H](CCC(=O)O)C(=O)N[C@H](C(=O)N[C@@H](CCC(=O)O)C(=O)N[C@@H](CCCCN)C(=O)N[C@@H](CCC(N)=O)C(=O)N[C@@H](CCC(=O)O)C(=O)N[C@@H](CCCCN)C(=O)N[C@@H](CCC(=O)O)C(=O)N[C@@H](CCCCN)C(=O)N[C@@H](CCC(N)=O)C(=O)N[C@@H](CCC(N)=O)C(=O)N[C@@H](C)C(=O)N[C@H]1CCC(=O)NCCCC[C@@H](C(=O)N[C@@H](CC(C)C)C(=O)N[C@@H](CC(C)C)C(=O)N[C@@H](CC(C)C)C(=O)N[C@@H](CC(=O)O)C(=O)N[C@@](C)(CC(C)C)C(=O)N[C@H](C(N)=O)[C@@H](C)CC)NC(=O)[C@H](CC(N)=O)NC(=O)[C@H](CC(N)=O)NC1=O)[C@@H](C)CC)[C@@H](C)CC [Example 2 cyclic peptide, (cyclo 31–34)[Ac-D-Phe^11, His^12, CML^13,39, Nle^17, Glu^31, Lys^34]-sauvagine(8–40)] | – | effectively antagonize CRF activity | – | little or no effect | > 500 nM | ~543 nM | – | 1.3 nM |
